One assay relates to EL12-58 PDX tumours. The experiment in a line: Neoadjuvant breast cancer PDX model of tumour recurrence. The note with it: after paclitaxel-induced regression and surgery; 20 mg/kg paclitaxel, 150 mg/kg pacritinib or both. The class given is in vivo, NOD-SCID mice.
The target of the next assay is T1, JAK2 (Homo sapiens, UniProt O60674).
T1 construct: endogenous in cells; host or cells: MB468 and MB231 cells; PDX-derived tumourspheres
The assay is described as follows: Western blot of phospho-JAK2 in breast cancer cells and patient-derived tumourspheres. The class given is cell-based. The note with it: patient-derived tumourspheres, IL-1 treatment. The text has this:
(§1) All immunoblots shown in this specification represent at least two independent experiments. In brief, cells were washed with PBS and lysed in RIPA buffer supplemented with protease and phosphatase inhibitors and further sonicated using an XL2000 Microson Ultrasonice Processor (Misonix). Equal amounts of protein extract were separated on SDS-polyacrylamided gels and transferred to PVDF membranes. Membranes were further blocked with 5% milk or BSA, and then probed with the following antibodies: anti-IRAK1 was purchased from Santa Cruz Biotechnology (Santa Cruz, Calif.; sc-7883), anti-phospho-IRAK1 (T209) was purchased from Assay Biotech (Sunnyvale, Calif.; A1074), anti-JAK2 (Danvers, Mass.; #3230) and anti-phospho-JAK2 ([…]) (Danvers, Mass.: #3774) were purchased from Cell Signaling Technology, anti-actin was purchased from Sigma Aldrich CA; A5441). For protein extraction of xenograft tumours, snap frozen samples were resuspended in RIPA buffer supplemented with protease and phosphatase inhibitors and homogenized with QIAGEN TissueLyzer II as described by the manufacturer, followed by immunoblotting as described above.
For orientation: In western blotting, separated proteins are transferred to a membrane and probed.

Assay [1] addresses T2, IRAK1 (Homo sapiens, UniProt P51617). The experiment in a line: Western blot of phospho-IRAK1 in breast cancer cells and patient-derived tumourspheres. The class given is cell-based. On the set-up: endogenous in cells; host or cells: MB468 and MB231 cells; PDX-derived tumourspheres. As to the method:
Recombinant IL-1p (Cat no: 200-01B) was purchased from Peprotech (Rocky Hill, N.J.). Recombinant S100A7 (Cat no: pro-149), S100A8 (Cat no: pro-800) and S100A9 (Cat no: pro-814), were purchased from ProSpec (East Brunswick, N.J.). Cells were treated with recombinant proteins at stated concentration for 20 min before harvesting for western blot. Paclitaxel (Cat no: P-9600) was purchased from LC Lab (Woburn, Mass.).
as §1

The next assay deals with MCF10A. The experiment in a line: Mammosphere formation assay, MCF10A. The note with it: long-term treatment with recombinant protein for 10 days. In kind it is cell-based. As to the method:
(§2) Mammosphere Formation Assay PDX-derived tumoursphere cells were trypsinized and passed through 40 μm cell strainer to achieve single cell suspensions. 3×10^4 cells were seeded in 6-well ultra-low attachment plates (Corning, N.Y.; CLS3471) in serum-free DMEM/F12 supplemented with N2 and B27 (Gibco, Grand Island, N.Y.), 20 ng/ml epidermal growth factor (MACS, Auburn, Calif.), 20 ng/ml basic fibroblast growth factor (MACS, Auburn, Calif.), 0.2 μM Thiazovivin ([…] Technologies, Vancouver, BC) and penicillin/streptomycin (Gibco, Carlsbad, Calif.). For breast cancer cell lines and MCF10A cell line, 3×10^4 cells were seeded in 6-well ultra-low attachment plates in Mammocult medium (Stem Cell Technologies, Vancouver, BC, Canada), supplemented with fresh hydrocortisone (0.5 μg/ml) and heparin (1:500). Mammospheres were maintained at 37° C. with 5% CO2 and topped up with medium every 3 days. After 7-9 days, mammospheres were stained with INT (2-(4-iodophenyl)-3-(4-nitrophenyl)-5-phenyl-2H-tetrazolium chloride, Sigma-Aldrich) and quantified. Imaging and quantification were done using GelCount apparatus and associated software (Oxford Optronix, Abingdon, UK). […] Cell Proliferation Assay

In assay [2] the test system is tumourspheres from both cell lines and patient-derived samples. The assay is described as follows: S100A8/S100A9 recombinant protein rescue of pacritinib-treated tumourspheres. The class given is cell-based, human. The note with it: recombinant protein 10 ng/ml added to culture medium; pacritinib 2.5 μM or 1 μM (method). As to the method: as §2
Assay [3] deals with K239S mutant cells (MB436, MB468). The experiment in a line: Tumoursphere formation of K239S mutant IRAK1 cells with recombinant protein rescue. The class given is cell-based. The note with it: recombinant protein added to culture medium of K239S mutant IRAK1 cells. The protocol:
as §2, with “Proliferation Assay […]” for “Proliferation Assay”

The target of assay [4] is T2, IRAK1. The assay is described as follows: Western blot of phospho-IRAK1 in breast cancer cells and patient-derived tumourspheres. In kind it is cell-based. Details: endogenous in cells; host or cells: MB468 and MB231 cells; PDX-derived tumourspheres. The note with it: MCF10A, long-term treatment with recombinant protein for 10 days.
[5] abbreviates: MB231 cells, recombinant protein as low as 1 ng/ml.

The results in this text go back to patent US11680298B2, “Method of identifying risk of cancer and therapeutic options” (Agency for Science, Technology and Research, priority 2016, dated 2023).

T2 sequence (P51617 whole entry): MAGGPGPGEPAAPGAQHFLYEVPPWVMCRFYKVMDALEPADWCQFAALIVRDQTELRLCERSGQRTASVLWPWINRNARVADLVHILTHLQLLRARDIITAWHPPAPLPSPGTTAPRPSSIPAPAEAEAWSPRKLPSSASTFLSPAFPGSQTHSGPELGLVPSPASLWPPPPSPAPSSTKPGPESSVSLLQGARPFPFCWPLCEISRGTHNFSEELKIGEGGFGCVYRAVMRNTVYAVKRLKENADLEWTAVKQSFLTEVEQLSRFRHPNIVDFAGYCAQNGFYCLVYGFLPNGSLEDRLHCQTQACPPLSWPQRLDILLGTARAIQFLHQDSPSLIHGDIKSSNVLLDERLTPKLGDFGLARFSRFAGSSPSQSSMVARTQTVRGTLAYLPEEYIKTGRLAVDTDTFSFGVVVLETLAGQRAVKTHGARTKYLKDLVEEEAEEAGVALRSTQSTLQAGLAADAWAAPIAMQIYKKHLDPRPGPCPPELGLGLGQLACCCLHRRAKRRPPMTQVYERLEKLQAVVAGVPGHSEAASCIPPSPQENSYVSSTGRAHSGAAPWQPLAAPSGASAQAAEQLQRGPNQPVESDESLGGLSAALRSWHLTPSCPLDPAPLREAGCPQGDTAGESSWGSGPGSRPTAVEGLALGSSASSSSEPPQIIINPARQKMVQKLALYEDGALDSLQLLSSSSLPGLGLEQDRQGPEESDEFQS
T1 sequence (O60674 whole entry): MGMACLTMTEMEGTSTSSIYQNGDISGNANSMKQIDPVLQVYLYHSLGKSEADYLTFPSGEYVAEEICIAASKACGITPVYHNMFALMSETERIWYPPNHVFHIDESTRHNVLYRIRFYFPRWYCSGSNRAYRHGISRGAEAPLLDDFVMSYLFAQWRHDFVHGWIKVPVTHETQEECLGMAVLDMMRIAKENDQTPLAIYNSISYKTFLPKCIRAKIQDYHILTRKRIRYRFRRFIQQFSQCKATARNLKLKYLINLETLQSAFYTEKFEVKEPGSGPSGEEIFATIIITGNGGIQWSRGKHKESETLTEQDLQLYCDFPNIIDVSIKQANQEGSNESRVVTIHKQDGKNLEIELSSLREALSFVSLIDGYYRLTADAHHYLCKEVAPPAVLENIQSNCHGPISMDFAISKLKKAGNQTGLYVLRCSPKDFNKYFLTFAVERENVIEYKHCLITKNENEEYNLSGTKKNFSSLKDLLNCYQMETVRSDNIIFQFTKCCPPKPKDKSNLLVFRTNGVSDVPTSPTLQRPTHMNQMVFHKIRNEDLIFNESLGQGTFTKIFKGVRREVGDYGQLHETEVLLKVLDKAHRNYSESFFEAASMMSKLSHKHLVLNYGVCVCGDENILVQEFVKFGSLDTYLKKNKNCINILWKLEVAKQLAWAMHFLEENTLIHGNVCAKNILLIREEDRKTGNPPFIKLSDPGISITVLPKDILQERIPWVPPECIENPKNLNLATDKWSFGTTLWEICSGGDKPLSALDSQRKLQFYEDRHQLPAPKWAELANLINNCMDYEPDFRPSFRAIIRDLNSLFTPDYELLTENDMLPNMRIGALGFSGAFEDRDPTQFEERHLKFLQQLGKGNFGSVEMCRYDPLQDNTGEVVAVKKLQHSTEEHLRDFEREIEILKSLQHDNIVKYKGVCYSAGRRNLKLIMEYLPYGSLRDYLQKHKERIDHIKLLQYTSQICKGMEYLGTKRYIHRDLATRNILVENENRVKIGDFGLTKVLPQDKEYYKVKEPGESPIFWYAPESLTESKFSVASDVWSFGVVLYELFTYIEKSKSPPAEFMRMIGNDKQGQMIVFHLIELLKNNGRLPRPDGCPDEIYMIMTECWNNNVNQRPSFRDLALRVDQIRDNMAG

With `CC(=O)O[C@H]1C(=O)[C@@]2(C)[C@H]([C@H](OC(=O)c3ccccc3)[C@]3(O)C[C@H](OC(=O)[C@H](O)[C@@H](NC(=O)c4ccccc4)c4ccccc4)C(C)=C1C3(C)C)[C@]1(OC(C)=O)CO[C@@H]1C[C@@H]2O` [paclitaxel], the “tumour regrowth after surgical removal of residual tumour” value in the assay on EL12-58 PDX tumours was “slowed down”.
As for “IL-1p: Recombinant IL-1p (Cat no: 200-01B) purchased from Peprotech”, in the assay with JAK2, the JAK2 phosphorylation entry was “remarkably induced JAK2 phosphorylation”. Besides, the IRAK1 phosphorylation entry with IRAK1 [1] (patient-derived tumourspheres, IL-1 treatment) was “did not have an obvious effect on IRAK1 phosphorylation”.
In the case of “S100A8: Recombinant S100A8 protein purchased from ProSpec (Cat no: pro-800)”, the mammosphere formation entry with MCF10A is reported as “increased mammosphere formation”. The “rescue of pacritinib-induced tumoursphere growth inhibition” value in assay [2] is recorded as “effectively rescued pacritinib-induced growth inhibition”. For the same molecule, the “rescue of tumoursphere growth” value in assay [3] was “able to rescue the tumoursphere growth”. For the same molecule, the IRAK1 phosphorylation result is reported as “able to induce IRAK1 phosphorylation” with IRAK1 [1] (setting [5]) and “increased IRAK1 phosphorylation” with IRAK1 [4].
The matching figures for “S100A9: Recombinant S100A9 protein purchased from ProSpec (Cat no: pro-814)”: “increased mammosphere formation”, “effectively rescued pacritinib-induced growth inhibition”, “able to rescue the tumoursphere growth”, “able to induce IRAK1 phosphorylation” and “increased IRAK1 phosphorylation”.

B1: S100A7: Recombinant S100A7 protein purchased from ProSpec (Cat no: pro-149) (protein, UniProt P31151 2-101, looked up)
Protein S100-A7: SNTQAERSIIGMIDMFHKYTRRDDKIEKPSLLTMMKENFPNFLSACDKKGTNYLADVFEKKDKNEDKKIDFSEFLSLLGDIATDYHKQSHGAAPCSGGSQ
Take B1: the IRAK1 phosphorylation result in the assay with IRAK1 [1] (setting [5]) is reported as “able to induce IRAK1 phosphorylation”.
